This note sets out measurements from US20170056496A1 (Sanofi, priority 2008, published 2017).

The conditions of data set [1]: for Comments: toxicity statement: toxicity = ≧20% body weight loss or 10% drug death.
For the next data set, the target named is T1, murine CD38 (Mus musculus, UniProt P56528).
T1 sequence (P56528 1-304): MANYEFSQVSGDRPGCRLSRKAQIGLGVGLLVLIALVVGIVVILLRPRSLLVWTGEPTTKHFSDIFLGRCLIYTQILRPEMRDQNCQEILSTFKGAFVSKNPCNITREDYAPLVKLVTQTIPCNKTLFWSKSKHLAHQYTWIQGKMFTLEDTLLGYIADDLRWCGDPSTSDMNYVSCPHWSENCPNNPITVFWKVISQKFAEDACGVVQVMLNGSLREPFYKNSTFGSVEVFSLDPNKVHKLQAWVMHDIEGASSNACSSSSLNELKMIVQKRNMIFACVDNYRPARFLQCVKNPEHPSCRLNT
Kind of data set: Cross-reactivity of the antibody with murine CD38. The format is binding.

Setting [2] is: CPA alone, 286.1 mg/kg/inj (total 572.2), listed as CPA, 286.1 mg/kg.

Where two headings read alike, the source gives them in different places.

For the compound `O=P1(N(CCCl)CCCl)NCCCO1` (stereo not shown) [cyclophosphamide], in data set [1] (setting [2]), the “deaths (deaths out of mice)” value was “⅗”. Moreover, the “Comments: toxicity statement” value in data set [1] (CPA alone, 286.1 mg/kg/inj (total 572.2), 286.1 mg/kg) is recorded as “Toxicity”; in data set [1] (setting [2]) it was “Toxic”. Moreover, the “deaths, percent of mice” value in data set [1] (CPA alone, 286.1 mg/kg/injection) turned out to be 60%. Further, the “% BWC at nadir (day)” value in data set [1] (CPA alone, IV day 11, 15, 68.2 mg/kg/inj (total 136.4), nadir day 18) is reported as −3.8 (18) %; in data set [1] (CPA alone, IV day 11, 15, 110.0 mg/kg/inj (total 220.0), nadir day 17), −5.2 (17) %; in data set [1] (CPA alone, IV day 11, 15, 286.1 mg/kg/inj (total 572.2), nadir day 20), −21.2 (20) %. The “Comments: toxicity statement (HNTD = highest nontoxic dose)” value in data set [1] (CPA alone, […] (total 354.8)) is listed as “HNTD”.

“hu38SB19: humanized anti-CD38 monoclonal antibody 38SB19; VH SEQ ID NO: 66, VL chosen from SEQ ID NOS: 62 and 64”: in the data set with murine CD38, the “cross-reactivity with murine CD38” value was “lack of cross-reactivity”. The “% BWC at nadir (day)” value in data set [1] (mouse, in vivo, iv, 40 mg/kg) is on record as “+5.4 (19) %”.
